Reference: patent US8426604B2 (Janssen Pharmaceutica NV, priority 2010, dated 2013)

Legend:
[1] = molecular target: T1, ERR1 (also known as ERR-α or ERR-1) (Homo sapiens, UniProt P11474); test: TR-FRET assay (disruption of co-activator peptide binding); format: biochemical; details: 6His-tagged ERR1LBD, GST-hSRC2 co-activator peptide; average of 3 independent experiments
T1 sequence (P11474 193-421 limits assumed): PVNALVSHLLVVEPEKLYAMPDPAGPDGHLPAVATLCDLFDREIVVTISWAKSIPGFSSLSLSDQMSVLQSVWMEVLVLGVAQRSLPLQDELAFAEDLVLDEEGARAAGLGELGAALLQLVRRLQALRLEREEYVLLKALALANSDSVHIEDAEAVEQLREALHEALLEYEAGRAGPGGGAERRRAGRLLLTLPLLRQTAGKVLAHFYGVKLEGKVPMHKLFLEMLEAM
Method: Time-Resolved Fluorescence Resonance Energy Transfer (TR-FRET) experiments were performed to examine the functional response of ERR1 (also known as ERR-α or ERR-1) ligands. The TR-FRET assay described herein relied on the conformation of ERR1 for binding to a co-activator peptide: when a test compound binds to ERR1 and alters its conformation, it can disrupt the binding of the co-activator peptide. The components of this homogeneous secondary assay included: the ^6His-tagged-ERR1LBD, a GST-labeled-hSRC2 co-activator polypeptide and a fluorescent donor/acceptor pair from CIS bio international htrf/bioassays (Bedford, Mass.) using both an α-GST Europium Cryptate (Eu) label and an α^6His-XL665 (allophycocyanin) fluorophore.
For TR-FRET measurements, the reaction was buffered in 25 mM Tris pH 8, 2.5 mM Hepes, 20 mM KCl, 1 mM DTT, and 0.05 mg/mL BSA (-lipids). The final concentrations of reagents were 6 nM of ERR1LBD, 6 nM GST-SRC-2 peptide, 30 nM Eu cryptate, and 7.5 nM XL665. Reactions were allowed to reach equilibrium at 25° C. for 4-18 hours before collecting data on the Analyst from LJL Biosystems (Molecular Devices Sunnyvale, Calif.). As a time-resolved method, the samples were excited at […] and emission was collected for 1 ms at both 615 and 665 nm with delays of 400 and 75 μs, respectively. Dose response curves were fitted using a hyperbolic equation and the data reported is the average of 3 independent experiments.

Zucker fa/fa male rats = test: Zucker fa/fa Rat Model Assay; format: in vivo; details: dosed orally once a day for 4 days, blood collected at day 5
Text: Zucker fa/fa is a monogenic model of frank diabetes due to a mutation on the fa gene truncating the leptin receptor and preventing its interaction with its peptide hormone. This mutation results in a hyperphagic phenotype and the rodent develops obesity, hyperlipidemia, fasting hyperglycemia and insulin resistance. Zucker fa/fa male rats were received at four weeks of age and allowed to acclimate for one week. At five weeks of age the animals were single housed in cages in a temperature-controlled room with 12-hour light/dark cycle. The rats were allowed ad libitum access to water and food and throughout the study were maintained on a Purina 5008 diet. Animals were sorted based primarily on fed insulin levels and circulating triglycerides. Animals were dosed orally once a day in the morning for 4 days. The vehicle used was either 20% HPβCD (Hydroxypropyl Beta Cyclodextrin) or 15% Vitamin E/30% PEG-400 (Polyethylene Glycol 400). Fed insulin and triglycerides were measured using blood collected from the tail vein at day 5. Serum plasma samples were prepared by centrifugation in EDTA (Ethylenediaminetetraacetic acid) containing tubes, transferred into 96 well plates and stored at −80° C.

SMILES | EC50 [1] [µM] | % Lowering Fed Insulin Levels (Zucker fa/fa male rats) [%] | % Lowering Fed Triglyceride Levels (Zucker fa/fa male rats) [%]
CN(C1=NC(=O)/C(=C/c2ccc3c(cnn3Cc3ccc(Cl)cc3C(F)(F)F)c2)S1)[C@@H](CO)C(=O)O [Compound 15, 2S-({5-[1-(4-Chloro-2-trifluoromethyl-benzyl)-1H-indazol-5-ylmethylene]-4-oxo-4,5-dihydro-thiazol-2-yl}-methyl-amino)-3-hydroxy-propionic acid] | 0.023 | 40 | 41
CN(C1=NC(=O)/C(=C/c2ccc3c(cnn3Cc3ccc(C(F)(F)F)cc3C(F)(F)F)c2)S1)C1CCN(CC(N)=O)CC1 [Compound 52, 2-(4-{[-5-({1-[2,4-Bis(trifluoromethyl)benzyl]-1H-indazol-5-yl}methylidene)-4-oxo-4,5-dihydro-1,3-thiazol-2-yl](methyl)amino}piperidin-1-yl)acetamide] | 0.013 | 30 | 38
CN(C1=NC(=O)/C(=C/c2ccc3c(cnn3Cc3ccc(Cl)cc3C(F)(F)F)c2)S1)[C@@H]1CCN(CC(N)=O)C1 [Compound 57, 2-[(3R)-3-({5-[1-(4-Chloro-2-trifluoromethyl-benzyl)-1H-indazol-5-ylmethylene]-4-oxo-4,5-dihydro-thiazol-2-yl}-methyl-amino)-pyrrolidin-1-yl]-acetamide] | 0.015 |  | 
CN(CC(=O)O)C1=NC(=O)/C(=C/c2ccc3c(cnn3Cc3ccc(C(F)(F)F)cc3C(F)(F)F)c2)S1 [Compound 58, ({5-[1-(2,4-Bis-trifluoromethyl-benzyl)-1H-indazol-5-ylmethylene]-4-oxo-4,5-dihydro-thiazol-2-yl}-methyl-amino)-acetic acid] | 0.038 |  | 
CN(C1=NC(=O)/C(=C/c2ccc3c(cnn3Cc3ccc(C(F)(F)F)cc3C(F)(F)F)c2)S1)[C@H]1C[C@@H](CO)N(CC(N)=O)C1 [Compound 59, 2-[4-({5-[1-(2,4-Bis-trifluoromethyl-benzyl)-1H-indazol-5-ylmethylene]-4-oxo-4,5-dihydro-thiazol-2-yl}-methyl-amino)-2-hydroxymethyl-pyrrolidin-1-yl]-acetamide] | 0.027 |  | 
CONC(=O)[C@H]1C[C@H](N(C)C2=NC(=O)/C(=C/c3ccc4c(cnn4Cc4ccc(Cl)cc4C(F)(F)F)c3)S2)CN1 [Compound 60, 4-({5-[1-(4-Chloro-2-trifluoromethyl-benzyl)-1H-indazol-5-ylmethylene]-4-oxo-4,5-dihydro-thiazol-2-yl}-methyl-amino)-pyrrolidine-2-carboxylic acid methoxy-amide] | 0.025 |  | 
CN(CC(=O)O)C1=NC(=O)/C(=C/c2ccc3c(cnn3Cc3ccc(C(C)(C)O)cc3C(F)(F)F)c2)S1 [Compound 61, [(5-{1-[4-(1-Hydroxy-1-methyl-ethyl)-2-trifluoromethyl-benzyl]-1H-indazol-5-ylmethylene}-4-oxo-4,5-dihydro-thiazol-2-yl)-methyl-amino]-acetic acid] | 1.2 |  | 

More lines, main results first:

EC50 [1] [µM] | SMILES | % Lowering Fed Insulin Levels (Zucker fa/fa male rats) [%] | % Lowering Fed Triglyceride Levels (Zucker fa/fa male rats) [%]
0.018 | CN1CCC(N(C)C2=NC(=O)/C(=C/c3ccc4c(cnn4Cc4ccc(C(F)(F)F)cc4C(F)(F)F)c3)S2)CC1 [Compound 20, 5-[1-(2,4-Bis-trifluoromethyl-benzyl)-1H-indazol-5-ylmethylene]-2-[methyl-(1-methyl-piperidin-4-yl)-amino]-thiazol-4-one] | 40 | 34
0.015 | CN(C1=NC(=O)/C(=C/c2ccc3c(cnn3Cc3ccc(C(F)(F)F)cc3C(F)(F)F)c2)S1)[C@@H]1CCN(CC(N)=O)C1 [Compound 56, 2-[(3R)-3-{[5-({1-[2,4-Bis(trifluoromethyl)benzyl]-1H-indazol-5-yl}methylidene)-4-oxo-4,5-dihydro-1,3-thiazol-2-yl](methyl)amino}pyrrolidin-1-yl]acetamide] |  | 
0.017 | CN(CC(=O)O)C1=NC(=O)/C(=C/c2ccc3c(cnn3Cc3ccc(O)cc3C(F)(F)F)c2)S1 [Compound 62, ({5-[1-(4-Hydroxy-2-trifluoromethyl-benzyl)-1H-indazol-5-ylmethylene]-4-oxo-4,5-dihydro-thiazol-2-yl}-methyl-amino)-acetic acid] |  | 
